We go through 8 compounds from PMC10186366 (ACS Pharmacology & Translational Science, 2023).

As a reminder, the Ki is the dissociation constant of the complex between target and ligand, obtained from inhibition or displacement.

Assay [1] has as its target T1, human ATIC (AICARFTase) (Homo sapiens, UniProt P31939).
T1 construct: full-length human ATIC; made in house; host or cells: E. coli Rosetta (DE3)pLysS
Nature of the assay: In vitro AICARFTase (ATIC) enzyme assay (THF formation from 10-CHOTHF). It counts as biochemical. To be noted: monoglutamyl antifolates; mean (standard error), at least three replicate assays; tested up to 200 μM. The method, then:
We directly tested inhibition potencies by in vitro assays using purified GARFTase and ATIC (AICARFTase) to calculate inhibition dissociation constants (Ki’s) (Table 2).[45]
N-terminal hexahistidine-tagged GARFTase (formyltransferase domain; residues 808–1010) and full-length human ATIC were expressed in Rosetta (DE3)pLysS cells.[45],[48] Cultures (1 L) were grown at 37 °C in LB media with 100 μg/mL ampicillin and 34 μg/mL chloramphenicol until OD600 reached 0.6. Isopropyl β-D-1-thiogalactopyranoside (500 μM) was added, and the cells were incubated at 20 °C for 16–18 h. The cultures were pelleted and resuspended in 40 mL of 25 mM Tris–HCl, pH 7.5, 300 mM NaCl, 5 mM β-mercaptoethanol (β-ME), 10 mM CaCl2, 10 mM MgCl2, 40 mg lysozyme, and 8 U DNAse I (Sigma). The cells were lysed by emulsification.
His-ATIC was purified from the lysate by immobilized metal affinity chromatography with a 4 mL Ni-NTA column (Gold Biotechnology).[45] The column was washed with 5 CV of 25 mM Tris–HCl, pH 7.5, 300 mM NaCl, 10 mM imidazole, and 5 mM β-ME (wash buffer) followed by 5 CV of the wash buffer containing 25 mM imidazole. The protein was eluted with 5 CV of the elution buffer containing components of the wash buffer with 300 mM imidazole. Further purification was by ÄKTA FPLC (GE Healthcare) with a Superdex 200 16/60 (GE Healthcare) column equilibrated with 20 mM Tris–HCl, pH 7.5, 150 mM NaCl, 50 mM KCl, 5 mM EDTA, and 5 mM dithiothreitol (DTT). His-ATIC was stored at 150 μM at 4 °C in this buffer (up to 6 months) or at 100 μM with 20% glycerol at −80 °C for longer-term storage.
GARFTase catalytic activity was measured by monitoring THF formation from 10-CHOTHF.[32],[45],[48] GARFTase assays included 40 μM 10-CHO-THF, 50 nM His-GARFTase, 15 μM α,β-GAR, and a range of inhibitor concentrations in 25 mM Tris–HCl, pH 8.0, 300 mM NaCl, and 5 mM β-ME at 37 °C.[45] AICARFTase catalytic activity was measured by monitoring THF formation from 10-CHOTHF.[54] Reactions included 50 μM 10-CHOTHF, 100 nM His-ATIC, 50 μM ZMP, and inhibitors in 32.6 mM Tris–HCl, pH 7.5, 25 mM KCl, and 5 mM β-ME at 25 ° C.[45] Kinetic measurements were recorded in triplicate in a UV-transparent 96-well plate (Costar 3635) at 298 nm using a BioTek Synergy Neo2 Plate Reader. Initial slopes were graphed against inhibitor concentrations and fit to a three-parameter nonlinear regression to calculate IC50 values for each compound (GraphPad Prism 8.0). […] SHMT2 activity was assayed by monitoring NADH production with a coupled assay including 500 nM His-SHMT2 and 10 μM His-MTHFD2 ([…] molar ratio His-SHMT2/His-MTHFD2). NADH production by His-MTHFD2 was monitored by fluorescence at 470 nm with excitation at 360 nm (Synergy Neo2 Biotek plate reader). Inhibition constants (Ki’s) were calculated from the IC50 values using the equation Ki = IC50/([S]/KM + 1) and the Km and substrate concentration for THF. The THF concentration in the reaction was […]. The calculated Km value for THF with His-SHMT2 was 62.8 μM.

The target in assay [2] is T2, human GARFTase (Homo sapiens, UniProt P22102).
T2 construct: GARFTase (formyltransferase domain; residues 808–1010); made in house; host or cells: E. coli Rosetta (DE3)pLysS
T2 sequence (P22102 808-1010): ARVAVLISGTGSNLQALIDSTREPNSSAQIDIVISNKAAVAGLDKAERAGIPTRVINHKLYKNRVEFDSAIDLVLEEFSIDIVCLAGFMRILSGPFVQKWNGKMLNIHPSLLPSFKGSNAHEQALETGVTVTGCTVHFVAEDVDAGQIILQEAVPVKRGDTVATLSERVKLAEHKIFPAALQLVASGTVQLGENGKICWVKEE
Nature of the assay: In vitro GARFTase enzyme assay (THF formation from 10-CHOTHF). The format is biochemical.
Description: His-GARFTase was purified from the lysate by ÄKTA FPLC (GE Healthcare) with a Ni-NTA column (Qiagen, Valencia, CA).[48] The column was washed with 5 column volumes (CV) of 25 mM Tris–HCl, pH 8, 300 mM NaCl, 10% glycerol, and 5 mM β-ME. His-GARFTase was eluted with a 0 to 75% gradient of 25 mM Tris–HCl, pH 8, 300 mM NaCl, 10% glyercol, 300 mM imidazole, and 5 mM β-ME over 10 CV. Further purification involved size exclusion chromatography on a Superdex 75 16/60 (GE Healthcare) column with 25 mM Tris–HCl, pH 8, 10 mM β-ME, and 300 mM NaCl. Purified His-GARFTase was stored at 90 μM in 20% glycerol at −80 °C.
GARFTase catalytic activity was measured by monitoring THF formation from 10-CHOTHF.[32],[45],[48] […] Initial slopes were graphed against inhibitor concentrations and fit to a three-parameter nonlinear regression to calculate IC50 values for each compound (GraphPad Prism 8.0). […] Inhibition constants (Ki’s) were calculated from the IC50 values using the equation Ki = IC50/([S]/KM + 1) and the Km and substrate concentration for THF.

The mark [3] stands for this setting: monoglutamyl antifolates, mean (standard error), at least three replicate assays, tested up to 150 μM, read-out: GARFTase Ki.

Read-outs that look alike come from different tables or passages of the source.

T1 sequence (P31939 whole entry): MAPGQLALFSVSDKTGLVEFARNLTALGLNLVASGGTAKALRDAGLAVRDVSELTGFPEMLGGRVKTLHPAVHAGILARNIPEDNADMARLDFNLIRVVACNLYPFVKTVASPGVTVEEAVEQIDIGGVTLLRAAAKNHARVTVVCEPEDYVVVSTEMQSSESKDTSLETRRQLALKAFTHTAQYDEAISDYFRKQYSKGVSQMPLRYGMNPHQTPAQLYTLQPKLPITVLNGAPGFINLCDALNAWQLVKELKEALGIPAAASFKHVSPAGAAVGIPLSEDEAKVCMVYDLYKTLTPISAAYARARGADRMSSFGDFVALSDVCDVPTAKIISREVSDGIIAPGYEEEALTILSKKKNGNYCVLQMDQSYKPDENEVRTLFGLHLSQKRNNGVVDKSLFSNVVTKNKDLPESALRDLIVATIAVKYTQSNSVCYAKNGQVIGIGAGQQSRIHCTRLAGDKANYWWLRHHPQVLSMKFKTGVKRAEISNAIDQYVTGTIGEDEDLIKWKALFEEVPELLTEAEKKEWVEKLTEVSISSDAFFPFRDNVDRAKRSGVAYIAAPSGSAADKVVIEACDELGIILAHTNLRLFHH

`Nc1nc2sc(CCCc3ccc(C(=O)N[C@@H](CCC(=O)O)C(=O)O)cc3)cc2c(=O)[nH]1` [Compound 1]: in assay [1], the Ki is over 200 µM.

With `Nc1nc2sc(CCCCc3cccc(C(=O)N[C@@H](CCC(=O)O)C(=O)O)n3)cc2c(=O)[nH]1` [Compound 3, (6-(4-(2-Amino-4-oxo-3,4-dihydrothieno[2,3-d]pyrimidin-6-yl)butyl)picolinoyl)-L-glutamic Acid], the Ki in assay [1] is 18.4 µM; in assay [2] (setting [3]), 26.7 µM.

`Nc1nc2sc(CCCCc3ccc(C(=O)N[C@@H](CCC(=O)O)C(=O)O)nc3)cc2c(=O)[nH]1` [Compound 4, (5-(4-(2-Amino-4-oxo-3,4-dihydrothieno[2,3-d]pyrimidin-6-yl)butyl)picolinoyl)-L-glutamic Acid]: the Ki is 12.1 µM in assay [1] and over 150 µM in assay [2].

In the case of `Nc1nc2sc(CCCCc3cnc(C(=O)N[C@@H](CCC(=O)O)C(=O)O)c(F)c3)cc2c(=O)[nH]1` [Compound 5, (5-(4-(2-Amino-4-oxo-3,4-dihydrothieno[2,3-d]pyrimidin-6-yl)butyl)-3-fluoropicolinoyl)-L-glutamic Acid], the Ki in assay [1] was over 200 µM; in assay [2] (setting [3]) it was 13.7 µM.

Regarding `Nc1nc2sc(CCCc3ccc(C(=O)N[C@@H](CCC(=O)O)C(=O)O)c(F)c3)cc2c(=O)[nH]1` [Compound 6, (4-(3-(2-Amino-4-oxo-3,4-dihydrothieno[2,3-d]pyrimidin-6-yl)propyl)-2-fluorobenzoyl)-L-glutamic Acid], the Ki in assay [1] is 7.3 µM; in assay [2] (setting [3]), over 150 µM.

Take `Nc1nc2sc(CCCCc3ccc(C(=O)N[C@@H](CCC(=O)O)C(=O)O)c(F)c3)cc2c(=O)[nH]1` [Compound 7, (4-(4-(2-Amino-4-oxo-3,4-dihydrothieno[2,3-d]pyrimidin-6-yl)butyl)-2-fluorobenzoyl)-L-glutamic Acid]: the Ki in assay [1] is 19.4 µM; in assay [2] (setting [3]), over 150 µM.

Consider `Nc1nc2sc(CCCc3csc(C(=O)N[C@@H](CCC(=O)O)C(=O)O)c3F)cc2c(=O)[nH]1` [Compound 8, (4-(3-(2-Amino-4-oxo-3,4-dihydrothieno[2,3-d]pyrimidin-6-yl)propyl)-3-fluorothiophene-2-carbonyl)-L-glutamic Acid], for which the inhibitory constant (Ki) is 14.5 µM in assay [1] and 3.1 µM in assay [2] (setting [3]).

Take `Nc1nc2sc(CCCCc3csc(C(=O)N[C@@H](CCC(=O)O)C(=O)O)c3F)cc2c(=O)[nH]1` [Compound 9, (4-(4-(2-Amino-4-oxo-3,4-dihydrothieno[2,3-d]pyrimidin-6-yl)butyl)-3-fluorothiophene-2-carbonyl)-L-glutamic Acid]: the Ki in assay [1] came out at 23.7 µM; in assay [2], 0.17 µM. In addition, the “GARFTase potency of 9 relative to 2” value in assay [2] (ratio of Ki values) is on record as 17 fold. Further, the “GARFTase potency of 9 relative to 10” value in assay [2] (ratio of Ki values) is on record as 25 fold.
